Test results reported in patent US10245328B2, “Gadolinium complex comprising DO3A-tranexamic acid conjugate” (KYUNGPOOK NATIONAL UNIVERSITY INDUSTRY-ACADEMIC COOPERATION …, priority 2014, dated 2019).
pKd: −log10 of the molar value.

Tests used:
[1] = Relaxation rate measurement (R1, R2) in PBS and in PBS solution of HSA; format: physicochemical; conditions: 293K; for R1 / R2: PBS pH 7.4, 64 MHz (1.5 T); for R1 in 0.67 mM HSA / R2 in 0.67 mM HSA: PBS solution of 0.67 mM HSA, 64 MHz
Description: T1 measurement is carried out using an inversion recovery method at 1.5 T (64 MHz) in a variable inverse time (TI). MR images are obtained for 35 different TI values in a range of 50 to 1750 ms. A T1 relaxation time is obtained from a nonlinear least-squares fit of a signal strength measured at each TI value. For a T2 CPMG (Carr-Purcell-Meiboon-Gill) pulse sequence measurement, the measurement is adapted to a multi spin-echo measurement. 34 images are obtained at 34 different echo time (TE) values in a range of 10 to 1900 ms. The T2 relaxation time is obtained from a nonlinear least-squares fit of mean pixel values for multi spin-echo measurement at each echo time. Next, a relaxation rate (R1 and R2) is calculated as an inverse of a relaxation time per mM. The determined relaxation time (T1 and T2) and relaxation rate (R1 and R2) are subjected to an image processing to get a relaxation time map and relaxation rate respectively.
For comparison between the complexes 2a-e, there is no noticeable difference in R1's. The measurement is carried out for two different media, that is, PBS (pH=7.4) and PBS solution of HAS in order to indicate which blood-pool effect is expressed by the complexes 2a-e.

ICR mice = assay: In vivo MR experiment, T1-weighted images after tail vein injection; conditions: for signal enhancement / signal strength at the liver / liver-specificity / class of contrast agent: 0.1 mmol Gd/kg i.v.; for signal enhancement / signal strength at the liver: 1.5 T, initial 1 hour; for liver-specificity / class of contrast agent: in vivo MR images of mice
Description: The in vivo experiment is executed with compliance to a regulation of Animal Research Committee of KNU. 29-31 g weight 6-weeks male ICR mice are used. […] The measurement is carried out before and after the injection of the complexes 2a-e through the tail vein. […] After the mice wake from the anesthesia after each measurement, the mice were placed in a cage capable of free access to feed and food. For this measurement, the animals are held at about 37° C. using a warm water blanket. MR images are taken using a 1.5 T MR unit (GE Healthcare, Milwaukee, Wis.) with a manual RF coil for a small animal. The coil may be of a receiver type having a 50 mm inner diameter. […] MR images are collected for 24 h after the injection. Anatomical positions having an improved contrast are set for a liver, a bile duct, and a kidney on (post contrast) MR images. For quantitative measurements, a signal intensity in a region of interest (ROI) is measured using Advantage Window software (GE medical, U.S.). The CNR is calculated using a following equation (1): […] SNR is a […].

[2] = Stability against hydrolysis in H2O (HPLC, 197 nm); format: physicochemical; conditions: for HPLC peak 2.38 min, 2b (trans) / HPLC peak 2.88 min, 2b (cis) / HPLC peak 3.16 min / HPLC peak 3.84 min / HPLC peak 7.66 min / HPLC peak 24.42 min / HPLC peak 28.12 min / HPLC peak 29.92 min / HPLC peak 34.46 min, Acid / HPLC peak 49.58 min: 2b in water; for HPLC peak 6.54 min, 2d / HPLC peak 7.79 min / HPLC peak 8.86 min / HPLC peak 33.15 min / HPLC peak 40.33 min / HPLC peak 40.81 min / HPLC peak 43.77 min / HPLC peak 44.51 min / HPLC peak 46.56 min: 2d in water
Description: The contrast agents of the present series 100 mg are dissolved in distilled water 10 mL and is maintained as they are for 72 hours at 50° C. Using HPLC, O.D. (Optical Density) values are read at 197 nm and the stability of the agents is determined. The substances at each retention time are examined using LC Mass Spectroscopy for accurate identification of decomposed products.

[3] = Isothermal titration calorimeter (ITC), binding of Gd^3+ to ligand; conditions: 25° C., pH = 4.5, read-out: Kd (dissociation constant)
Description: In order to quantify binding isotherms of paramagnetic metal ions Gd^3+ with a ligand solution, an ITC test is executed at a VP-ITC isothermal titration microcalorimeter (Microcal, USA). Data collection, analysis and plotting are executed with help of software package Origin, version 8.0 from Microcal. A sample cell has a 1.43 mL volume. The cell is filled with a water-soluble buffer solution of the above compound 1a-e ligand (0.2 mM). A water-soluble buffer solution of Gd^3+ (1.0 mM) is input into a 300 μL continuous agitated (300 rpm) syringe and 10 μL aliquots thereof is injected into the cell. At a 3-mins interval, the cell is delivered over 20 s. Data points are collected on a 2 s basis. The measurement is executed at 25° C. All titrations are executed three times to secure data consistency and solution stability. These titration isotherms are integrated to find out an enthalpy change at each injection. In order to fit well with two mathematically different sets of site models, the titration isotherms are analyzed. Via a calorie measurement, parameters including a binding constant (Ka), a change in enthalpy (ΔH), a stoichiometry of binding (N) are calculated. Next, a free energy (ΔG) and an entropy change (ΔS) are calculated using a following complexation equation: Mn++nL↔MLn:ΔG=−RT·InKa=ΔH-TΔS,
where, R indicates a universal gas constant; T is Kelvin temperature.

## O=C([O-])CN1CCN(CC(=O)[O-])CCN(CC(=O)NCC2CCC(C(=O)O)CC2)CCN(CC(=O)[O-])CC1.[Gd+3] (stereo not drawn) [2b]
[1]
  R1: 3.87 ± 0.11 mM⁻¹ s⁻¹
  R2: 3.98 ± 0.26 mM⁻¹ s⁻¹
  R1 in 0.67 mM HSA: 3.98 ± 0.14 mM⁻¹ s⁻¹
  R2 in 0.67 mM HSA: 5.43 ± 0.28 mM⁻¹ s⁻¹
ICR mice; ICR mice
  signal enhancement / signal strength at the liver: strong signal enhancement
ICR mice
  liver-specificity / class of contrast agent: strong specificity enhancement
[2]; 50° C./3 day
  HPLC peak 2.38 min, 2b (trans): 93.4%
  HPLC peak 2.88 min, 2b (cis): 2.87%
  HPLC peak 3.16 min: 0.33%
  HPLC peak 3.84 min: 0.38%
  HPLC peak 7.66 min: 0.06%
  HPLC peak 24.42 min: 0.19%
  HPLC peak 28.12 min: 0.64%
  HPLC peak 29.92 min: 0.10%
  HPLC peak 34.46 min, Acid: 0.03%
  HPLC peak 49.58 min: 0.21%
[2]; initial
  HPLC peak 2.38 min, 2b (trans): 92.80%
  HPLC peak 2.88 min, 2b (cis): 3.35%
  HPLC peak 3.16 min: 0.30%
  HPLC peak 3.84 min: 0.35%
  HPLC peak 7.66 min: 0.12%
  HPLC peak 24.42 min: 0.06%
  HPLC peak 28.12 min: 0.56%
  HPLC peak 29.92 min: 0.09%
  HPLC peak 34.46 min, Acid: 0.34%
  HPLC peak 49.58 min: 0.19%

## CCOC(=O)C1CCC(CNC(=O)CN2CCN(CC(=O)O)CCN(CC(=O)O)CCN(CC(=O)O)CC2)CC1 (stereo not drawn) [1a]
[3]
  pKd: 4.72

## CNC[C@H](O)[C@@H](O)[C@H](O)[C@H](O)CO.O=C([O-])CN1CCN(CC(=O)[O-])CCN(CC(=O)O)CCN(CC(=O)[O-])CC1.[Gd+3] [Dotarem, Gd-DOTA, reference compound]
[1]
  R1: 3.59 ± 0.17 mM⁻¹ s⁻¹
  R2: 3.87 ± 0.20 mM⁻¹ s⁻¹
  R1 in 0.67 mM HSA: 4.05 ± 0.13 mM⁻¹ s⁻¹
  R2 in 0.67 mM HSA: 4.30 ± 0.25 mM⁻¹ s⁻¹

## NCCNC(=O)C1CCC(CNC(=O)CN2CCN(CC(=O)[O-])CCN(CC(=O)[O-])CCN(CC(=O)[O-])CC2)CC1.[Gd+3] (stereo not drawn) [2c]
[1]
  R1: 3.68 ± 0.13 mM⁻¹ s⁻¹
  R2: 3.62 ± 0.26 mM⁻¹ s⁻¹
  R1 in 0.67 mM HSA: 3.74 ± 0.07 mM⁻¹ s⁻¹
  R2 in 0.67 mM HSA: 4.10 ± 0.07 mM⁻¹ s⁻¹
ICR mice; ICR mice
  signal enhancement / signal strength at the liver: strong signal enhancement
ICR mice
  liver-specificity / class of contrast agent: strong specificity enhancement
[2]; 2c in water, 50° C./3 day
  HPLC peak 2.58%: 0.27%
  HPLC peak 7.61%: 0.14%
  HPLC peak 19.86%: 2.30%
  HPLC peak 2.31 min, 2b: 0.11%
  HPLC peak 9.10 min, 2c (trans): 93.11%
  HPLC peak 10.60 min, 2c (cis): 1.19%
  HPLC peak 40.68 min, 1c: 0.002%
  HPLC peak 45.53 min: 0.18%
  HPLC peak 49.81 min: 0.11%
[2]; 2c in water, initial
  HPLC peak 2.58%: 0.27%
  HPLC peak 7.61%: 0.14%
  HPLC peak 2.31 min, 2b: 0.06%
  HPLC peak 9.10 min, 2c (trans): 91.05%
  HPLC peak 10.60 min, 2c (cis): 1.35%
  HPLC peak 40.68 min, 1c: 1.65%
  HPLC peak 45.53 min: 0.16%
  HPLC peak 49.81 min: 0.09%

## NC1CCC(NC(=O)CN2CCN(CC(=O)[O-])CCN(CC(=O)[O-])CCN(CC(=O)[O-])CC2)CC1.[Gd+3] (stereo not drawn) [2d]
[1]
  R1: 3.94 ± 0.13 mM⁻¹ s⁻¹
  R2: 3.68 ± 0.29 mM⁻¹ s⁻¹
  R1 in 0.67 mM HSA: 3.91 ± 0.09 mM⁻¹ s⁻¹
  R2 in 0.67 mM HSA: 4.07 ± 0.09 mM⁻¹ s⁻¹
ICR mice
  liver-specificity / class of contrast agent: ECF contrast agent
ICR mice; initially after 0.1 mmol Gd/kg i.v., ICR mice
  signal enhancement at the kidney and abdominal aorta: strong signal enhancement
[2]; 50° C./3 day
  HPLC peak 6.54 min, 2d: 90.10%
  HPLC peak 7.79 min: 0.36%
  HPLC peak 8.86 min: 0.30%
  HPLC peak 33.15 min: 1.12%
  HPLC peak 40.33 min: 0.007%
  HPLC peak 40.81 min: 0.14%
  HPLC peak 43.77 min: 0.25%
  HPLC peak 44.51 min: 0.22%
  HPLC peak 46.56 min: 0.18%
[2]; initial
  HPLC peak 6.54 min, 2d: 89.67%
  HPLC peak 7.79 min: 0.30%
  HPLC peak 8.86 min: 0.30%
  HPLC peak 33.15 min: 1.20%
  HPLC peak 40.33 min: 0.16%
  HPLC peak 40.81 min: 0.14%
  HPLC peak 43.77 min: 0.27%
  HPLC peak 44.51 min: 0.23%
  HPLC peak 46.56 min: 0.19%
